In publication PMC10884080, “A progesterone derivative linked to a stable phospholipid activates breast cancer cell response without leaving the cell membrane” (Cellular and Molecular Life Sciences: CMLS, 2024):

Molecular target: T1, progesterone receptor (PR, PRb) (Homo sapiens, UniProt P06401)
T1 construct: gene PGR; wild type PRb expressed in PR-negative U2OS or TYML cells
T1 sequence (P06401 1-933): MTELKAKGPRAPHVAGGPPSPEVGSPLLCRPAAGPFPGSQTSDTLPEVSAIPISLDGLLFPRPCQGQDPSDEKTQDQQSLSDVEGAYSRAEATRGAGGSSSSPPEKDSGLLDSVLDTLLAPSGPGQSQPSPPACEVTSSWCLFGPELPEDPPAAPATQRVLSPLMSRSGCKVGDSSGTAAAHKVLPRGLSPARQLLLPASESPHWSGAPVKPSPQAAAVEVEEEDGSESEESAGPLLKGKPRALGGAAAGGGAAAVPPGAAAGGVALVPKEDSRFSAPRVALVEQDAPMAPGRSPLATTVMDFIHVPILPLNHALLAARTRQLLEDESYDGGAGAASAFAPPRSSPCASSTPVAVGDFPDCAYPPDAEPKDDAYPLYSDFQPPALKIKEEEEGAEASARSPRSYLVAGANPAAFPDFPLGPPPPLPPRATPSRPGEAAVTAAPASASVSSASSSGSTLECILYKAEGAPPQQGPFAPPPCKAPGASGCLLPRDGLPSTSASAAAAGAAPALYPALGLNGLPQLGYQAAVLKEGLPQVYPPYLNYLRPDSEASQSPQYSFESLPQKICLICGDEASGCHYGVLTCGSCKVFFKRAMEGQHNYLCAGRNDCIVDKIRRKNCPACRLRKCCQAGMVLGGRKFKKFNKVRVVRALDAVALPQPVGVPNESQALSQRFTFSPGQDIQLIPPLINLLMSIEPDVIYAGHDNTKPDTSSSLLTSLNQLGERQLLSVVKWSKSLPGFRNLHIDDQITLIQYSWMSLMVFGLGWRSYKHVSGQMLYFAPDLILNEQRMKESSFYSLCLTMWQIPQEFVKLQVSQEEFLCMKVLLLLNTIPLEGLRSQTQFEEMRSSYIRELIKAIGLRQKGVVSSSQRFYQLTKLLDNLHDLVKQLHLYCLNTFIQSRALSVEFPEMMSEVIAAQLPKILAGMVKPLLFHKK
Test: PR S294 phosphorylation and MMTV-luc/target gene induction by […] P4 in PR-negative cells transfected with wild type PRb
Format: cell-based

Structure (SMILES): CC(=O)[C@H]1CC[C@H]2[C@@H]3CCC4=CC(=O)CC[C@]4(C)[C@H]3CC[C@]12C [P4, progesterone]
- PR S294 phosphorylation and MMTV-luc/target gene induction by 10 nM P4 in PR-neg: only the wtPR-expressing cells activated the ERK kinase and led to PR phosphorylation
